The source of these data is patent US20210116454A1, “METHODS FOR TREATING A HEMATOLOGICAL CANCER AND THE USE OF COMPANION BIOMARKERS FOR 2-(2,6-DIOXOPIPERIDIN-3-YL)-4-((2-FLUORO-4-((3-MORPHOLINOAZETIDIN-1-YL)METHYL)BENZYL)AMINO)ISOINDOLINE-1,3-DIONE” (CELGENE CORPORATION, priority 2019, published 2021).

One assay concerns exhausted T cells. Kind of assay: SEB-induced T-cell exhaustion restimulation assay, effector cytokine release (MSD). It is filed as cell-based. Particulars: for EC50: T cell restimulation assay.
Another assay has as its target Ikaros (Homo sapiens, UniProt Q13422+Q96SW2). The experiment in a line: ePL-tagged substrate degradation kinetics in DF15 cells (enantiomer comparison). Details: expressed in transfected cells; host or cells: DF15 cells; Ikaros Y-constant: scale not given here. Conditions: for DC50: read-out: Ikaros EC50. It is filed as cell-based. On the procedure:
In a second assay, DF15 cell lines expressing ePL-tagged target protein substrates were used as a model system to monitor protein degradation at 0.75, 1, 1.5, 3, 4, and 24 hours over a concentration range from 1 pM to 10 μM. The proteins evaluated were Ikaros (FIG. 17), Aiolos, and ZFP91. Compound 1 and Compound 2 were both able to degrade the substrate proteins at all time points (Table 9). In a further assay, additional time points were included to monitor the effect of treatment with Compound 1 and Compound 2.
The depth of substrate protein degradation described by the Y-constant was also measured in this assay against a negative control luciferase inhibitor (CC1071297, Y-constant=0).

The target in a further assay is T1, ZFP91 (Homo sapiens, UniProt Q96JP5+Q96SW2).
T1 construct: expressed in transfected cells; host or cells: DF15 cells
T1 sequence (Q96JP5 whole entry): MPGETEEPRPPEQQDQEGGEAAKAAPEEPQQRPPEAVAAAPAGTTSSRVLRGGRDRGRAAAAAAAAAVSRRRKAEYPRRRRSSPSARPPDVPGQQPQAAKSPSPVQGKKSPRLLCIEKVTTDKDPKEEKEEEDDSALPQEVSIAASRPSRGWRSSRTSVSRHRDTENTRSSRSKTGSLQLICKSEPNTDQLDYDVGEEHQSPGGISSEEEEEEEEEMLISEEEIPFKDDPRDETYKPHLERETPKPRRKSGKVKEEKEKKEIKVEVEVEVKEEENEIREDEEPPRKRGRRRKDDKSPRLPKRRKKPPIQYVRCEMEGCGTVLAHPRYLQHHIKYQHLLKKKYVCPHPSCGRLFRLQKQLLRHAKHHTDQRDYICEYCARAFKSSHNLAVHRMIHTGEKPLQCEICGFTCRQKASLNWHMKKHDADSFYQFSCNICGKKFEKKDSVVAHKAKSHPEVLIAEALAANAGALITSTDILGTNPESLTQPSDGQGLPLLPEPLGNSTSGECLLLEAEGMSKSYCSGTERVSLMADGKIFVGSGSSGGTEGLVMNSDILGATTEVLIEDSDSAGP
T1 sequence (Q96SW2 whole entry): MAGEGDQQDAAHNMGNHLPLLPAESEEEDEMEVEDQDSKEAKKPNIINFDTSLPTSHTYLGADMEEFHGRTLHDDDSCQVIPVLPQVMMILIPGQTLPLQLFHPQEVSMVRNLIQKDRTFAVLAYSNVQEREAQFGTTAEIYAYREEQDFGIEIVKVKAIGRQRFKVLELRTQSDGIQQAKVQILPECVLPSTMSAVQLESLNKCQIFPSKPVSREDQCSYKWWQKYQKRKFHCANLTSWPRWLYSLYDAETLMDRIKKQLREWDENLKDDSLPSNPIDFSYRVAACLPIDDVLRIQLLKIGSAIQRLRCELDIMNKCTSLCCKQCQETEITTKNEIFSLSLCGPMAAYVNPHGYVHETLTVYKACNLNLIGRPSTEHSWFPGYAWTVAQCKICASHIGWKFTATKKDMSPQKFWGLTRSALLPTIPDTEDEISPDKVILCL
T1 sequence (Q16531 whole entry partner): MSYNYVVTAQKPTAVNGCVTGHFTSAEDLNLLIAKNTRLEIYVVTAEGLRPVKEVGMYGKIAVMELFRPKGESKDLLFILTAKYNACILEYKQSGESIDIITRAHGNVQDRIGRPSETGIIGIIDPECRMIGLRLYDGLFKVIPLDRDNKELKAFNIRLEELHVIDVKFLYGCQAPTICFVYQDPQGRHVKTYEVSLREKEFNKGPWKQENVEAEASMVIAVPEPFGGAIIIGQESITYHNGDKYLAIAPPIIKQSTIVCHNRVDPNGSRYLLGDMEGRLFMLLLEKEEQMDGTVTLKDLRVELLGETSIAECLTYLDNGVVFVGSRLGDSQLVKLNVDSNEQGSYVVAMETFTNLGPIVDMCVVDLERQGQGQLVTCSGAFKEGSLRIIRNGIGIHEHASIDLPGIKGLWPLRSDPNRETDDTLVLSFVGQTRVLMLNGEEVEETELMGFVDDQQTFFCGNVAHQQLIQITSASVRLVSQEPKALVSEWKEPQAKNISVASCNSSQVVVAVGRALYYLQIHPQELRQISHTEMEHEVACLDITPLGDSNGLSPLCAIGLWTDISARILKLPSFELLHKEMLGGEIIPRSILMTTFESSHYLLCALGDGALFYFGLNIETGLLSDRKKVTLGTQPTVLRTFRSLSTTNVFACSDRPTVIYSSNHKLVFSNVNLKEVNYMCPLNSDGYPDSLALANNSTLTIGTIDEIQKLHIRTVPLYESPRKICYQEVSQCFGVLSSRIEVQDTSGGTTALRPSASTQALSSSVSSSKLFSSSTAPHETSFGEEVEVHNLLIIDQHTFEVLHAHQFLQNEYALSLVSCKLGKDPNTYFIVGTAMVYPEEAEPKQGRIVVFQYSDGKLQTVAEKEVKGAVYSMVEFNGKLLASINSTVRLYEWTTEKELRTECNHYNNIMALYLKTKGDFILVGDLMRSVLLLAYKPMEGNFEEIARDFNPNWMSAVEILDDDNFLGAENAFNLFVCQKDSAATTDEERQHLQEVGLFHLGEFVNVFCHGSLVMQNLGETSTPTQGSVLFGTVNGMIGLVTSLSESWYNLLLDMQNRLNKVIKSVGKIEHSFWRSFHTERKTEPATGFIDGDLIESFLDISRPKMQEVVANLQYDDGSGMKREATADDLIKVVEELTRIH
The experiment in a line: Enzyme fragment complementation (EFC) degradation assay, DF15 cells expressing ePL-tagged substrate. It is filed as cell-based. Particulars: for Emax: remaining substrate; for DC50: read-out: ZFP91 degradation EC50.

The test system of the next assay is SU-DHL-2^CRBN−/− cells. Kind of assay: Western blot time- and concentration-response in cereblon knockout cells. It is filed as cell-based. From the text: However, Compound 1 had no activity in SU-DHL-2^CRBN−/− cells, indicating the requirement of cereblon for induction of apoptosis by Compound 1 in DLBCL (FIG. 5 C).
Another assay concerns SU-DHL-2 cells. The experiment in a line: Western blot of substrate degradation by each enantiomer, short time-course. It is filed as cell-based. Particulars: SU-DHL-2, within 2 hours at 1 nM. How it is done: Pure samples of each enantiomer were tested for cellular degradation of substrate proteins measured over a short time-course (FIG. 16). SU-DHL-2 cells were treated for 1, 2, and 6 hours with vehicle control (0.1% DMSO), Compound 1 (1, 10, 100 nM), or Compound 2 (1, 10, 100 nM). Western blot analysis was used to evaluate the extent of degradation of the protein substrates Aiolos, Ikaros, and ZFP91. Compound 1 inhibited Aiolos, Ikaros, and ZFP91 in as early as 1 hour of treatment with as little as 1 nM.
(Immunoblotting shows a protein as a band on a membrane.)

A further assay concerns Karpas-422 cells. The experiment in a line: Western blot of substrates and downstream proteins. It is filed as cell-based. How it is done:
(§1) To confirm that the rapid degradation of substrates and induction of apoptosis by Compound 1 is not unique to SU-DHL2 cells, TMD8 (ABC cell line) and Karpas-422 (GCB-cell line) cells were treated with vehicle control (DMSO) or Compound 1 at the times and concentrations indicated (FIG. 6).
(§2) In a second experiment, we confirmed that Compound 1 (100 nM) treatment of TMD8 produced a large reduction of Aiolos, Ikaros, and ZFP91 at the 24-hour timepoint. […] In Karpas-422 cells, Compound 1 also produced a reduction of Aiolos, Ikaros, and ZFP91 at the 24-hour timepoint (FIG. 6, panel D). At the 48-hour timepoint, Compound 1 increased the abundance of the proliferation inhibitor p21 and the interferon-stimulated genes IRF7, IFIT3, and DDX58, and reduced the expression of MYC (FIG. 6, panel D).

The subject of the next assay is TMD8 cells. The experiment in a line: Western blot of substrates and downstream proteins. It is filed as cell-based. On the procedure:
as §1, §2

Another assay has as its system BT system. Kind of assay: BioMAP BT system (B cells and PBMCs). Conditions: 0.01, 0.1, 1, and 10 μM. It is filed as cell-based, human. How it is done: The activity of Compound 1 was profiled in a panel of human primary cell-based assays, modeling complex tissue and disease biology of organs (vasculature, immune system, skin, lung) and general tissue biology using the BioMAP System (DiscoveRx, Fremont, Calif.).
The BioMAP System consists of twelve primary human monoculture or co-culture systems in stimulated and non-stimulated control conditions (FIG. 4, panel A). When tested at 0.01, 0.1, 1, and 10 μM, Compound 1 mediated changes in key biomarker activities. Specifically, the profiles for Compound 1 reflected selective anti-inflammatory and immunomodulatory impact on monocyte (LPS) and T cell dependent B cell activation responses (BT). Treatment with Compound 1 led to a decrease in interleukin 8 (IL-8), interleukin 1a (IL-1a), secreted prostaglandin E2 (sPGE2), and secreted tumor necrosis factor alpha (sTNFα) in the LPS system, which consisted of peripheral blood mononuclear cells (PBMCs) and endothelial cells. Furthermore, secreted IgG (sIgG), secreted interleukin 17A (sIL-17A), secreted interleukin 17F (sIL-17F), and sTNFα decreased, whereas secreted interleukin 2 (sIL-2) and secreted interleukin 6 (sIL-6) increased, in the BT system, which was comprised of B cells and PBMCs.

In a further assay the test system is SU-DHL-4. The experiment in a line: CellTiter-Glo (CTG) antiproliferative assay, 5-day. It is filed as cell-based. Particulars: Homo sapiens, 120 h; SU-DHL-4, 5-day assay, n = 6. How it is done:
To evaluate the activity of both Compound 1 and Compound 2 in DLBCL cells, a CellTiter-Glo (CTG) assay was performed to measure the antiproliferative activity.

The next assay concerns DoxoR cell lines. The experiment in a line: Doxorubicin-resistant (DoxoR) versus matching parental DLBCL lines. It is filed as cell-based. Particulars: DoxoR versus matching parental cells. On the procedure: The activity of Compound 1 was also evaluated in cell lines with acquired resistance to doxorubicin (Table 4). Doxorubicin-resistant cell lines (DoxoR) were generated by culturing the parental cell lines in vitro with increasing concentrations of doxorubicin for a long period of time (˜9 to 18 months) until they were able to grow in the presence of a relatively high concentration of doxorubicin (1 μM). Matching parental (M-Parent) cells were generated by maintaining the parental cells in culture without treatment for the same amount of time (˜9 to 18 months). The growth-inhibitory effect of doxorubicin on parental cells and the corresponding resistant cells was evaluated by measuring the number of viable cells and extent of apoptosis by 7-AAD exclusion and Annexin V staining using flow cytometry.

Where [1] appears, read: TMD8, 100 nM, 24-hour timepoint.

Like-named read-outs stand apart in the source and are kept apart here.

By EC50 is commonly meant the midpoint of the concentration-response curve. In general, Emax refers to the greatest response seen or fitted, relative to the assay's reference. As usually defined, the IC50 is the concentration at which inhibition is half-maximal.

Chain of Ikaros (Q13422 whole entry): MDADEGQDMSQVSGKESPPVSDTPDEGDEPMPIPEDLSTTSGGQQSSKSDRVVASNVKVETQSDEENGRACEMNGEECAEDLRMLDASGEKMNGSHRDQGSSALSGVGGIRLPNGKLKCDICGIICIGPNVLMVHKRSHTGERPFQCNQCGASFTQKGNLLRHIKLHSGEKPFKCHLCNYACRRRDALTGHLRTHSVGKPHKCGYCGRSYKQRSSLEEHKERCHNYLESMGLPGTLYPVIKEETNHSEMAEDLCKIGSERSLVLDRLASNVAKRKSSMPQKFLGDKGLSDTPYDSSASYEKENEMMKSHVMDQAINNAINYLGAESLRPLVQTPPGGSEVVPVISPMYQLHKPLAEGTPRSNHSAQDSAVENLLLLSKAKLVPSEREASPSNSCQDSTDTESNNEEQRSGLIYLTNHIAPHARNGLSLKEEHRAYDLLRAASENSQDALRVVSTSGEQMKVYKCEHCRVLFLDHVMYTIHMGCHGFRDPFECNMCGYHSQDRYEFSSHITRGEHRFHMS
Chain of Ikaros (Q96SW2 whole entry): as the sequence (Q96SW2 whole entry) above
Chain of Ikaros (Q16531 whole entry partner): as the sequence (Q16531 whole entry partner) above

As for `O=C1CC[C@H](N2C(=O)c3cccc(NCc4ccc(CN5CC(N6CCOCC6)C5)cc4F)c3C2=O)C(=O)N1` [Compound 1, (S)-2-(2,6-dioxopiperidin-3-yl)-4-((2-fluoro-4-((3-morpholinoazetidin-1-yl)methyl)benzyl)amino)isoindoline-1,3-dione], the EC50 in the assay on exhausted T cells (read-out: EC50 for secreted GM-CSF levels) was determined as 6 nM; with exhausted T cells (read-out: EC50 for secreted IFNγ), 10 nM; in the assay with exhausted T cells (read-out: EC50 for secreted TNFα), 10 nM. Besides, the GM-CSF secretion is 3000 pg/mL with exhausted T cells (approximately 0.001 μM for 96 hours) and 10,000 pg/mL in the assay on exhausted T cells (approximately 0.01 μM for 96 hours). The GM-CSF secretion plateau entry with exhausted T cells (concentrations greater than 0.1 μM, 96 hours) is “under 15,000 pg/mL”. In addition, the “Ikaros Y-constant” value amounted to 39.3 at Ikaros (0.75 hours); 27.5 on Ikaros (1 hour); 12.5 on Ikaros (1.5 hours); 8.6 on Ikaros (3 hours); 6.8 on Ikaros (4 hours); 2.6 on Ikaros (24 hours). Also, the DC50 stood at 1.25 nM on Ikaros (0.75 hours); 1.01 nM on Ikaros (1 hour); 0.96 nM at Ikaros (1.5 hours); 0.81 nM at Ikaros (3 hours); 0.99 nM on Ikaros (4 hours); 0.35 nM at Ikaros (24 hours). The DC50 at ZFP91 (DF15 ePL-ZFP91, 1 hour) is 1 nM; on ZFP91 (DF15 ePL-ZFP91, 2 hours), 0.5 nM; on ZFP91 (DF15 ePL-ZFP91, 6 hours), 0.2 nM; at ZFP91 (DF15 ePL-ZFP91, 24 hours), 0.1 nM. In addition, the Emax on ZFP91 (DF15, DF15 ePL-ZFP91, 1 hour) amounted to 64%; on ZFP91 (DF15, DF15 ePL-ZFP91, 2 hours) it was 26.5%; on ZFP91 (DF15, DF15 ePL-ZFP91, 6 hours), 4%; at ZFP91 (DF15, DF15 ePL-ZFP91, 24 hours), 2.5%. Besides, in the assay on SU-DHL-2^CRBN−/− cells, the “activity in cereblon knockout cells” value is recorded as “no activity”. For the same compound, the “degradation of each of Aiolos, Ikaros, and ZFP91” value in the assay on SU-DHL-2 cells was “More than 50%”. For the same compound, the “Ikaros, Aiolos, and ZFP91 protein expression” value in the assay on Karpas-422 cells (Karpas-422, 10 and 100 nM, entire course of treatment) is “complete suppression”; in the assay on TMD8 cells (TMD8, 10 and 100 nM, entire course of treatment), “complete suppression”. In addition, the MYC reduction in the assay on Karpas-422 cells (Karpas-422, after 72 hours) is listed as 50%; in the assay with TMD8 cells (setting [1]), 75%. This compound also showed a BCL6 reduction with TMD8 cells (setting [1]) of 65%. In the assay on TMD8 cells (setting [1]), this compound had an IRF4 reduction of 90%. Further, in the assay with BT system, the “sIL-2 and sIL-6” value was “increased”. Also, the “sIgG, sIL-17A, sIL-17F, and sTNFα” value in the assay on BT system is on record as “decreased”. Also, in the assay with SU-DHL-4, the midpoint of inhibition, the IC50, lay at 22 nM.

For the compound `COc1cccc2c1C(=O)c1c(O)c3c(c(O)c1C2=O)C[C@@](O)(C(=O)CO)C[C@@H]3O[C@H]1C[C@H](N)[C@H](O)[C@H](C)O1` [Doxorubicin, reference compound], the “shifts in IC50 values for doxorubicin in DoxoR lines” value with DoxoR cell lines is reported as “more than 100 fold”.
